Laboratory results reported in ChEMBL document CHEMBL6109147, “Discovery of Potent STING Inhibitors Bearing a Difluorobenzodioxol Structural Motif as Potent Anti-Inflammatory Agents” (J Med Chem, 2025).
The source made the active and inactive calls.

How the values were obtained:
Mus musculus [1] = experiment: Anti-inflammatory activity in TREX1 D18N mouse model assessed as reduction in Ifn-beta mRNA expression in kidney at 10 mg/kg, ip measured after 2 weeks; type: functional, organism-based
Mus musculus [2] = experiment: Anti-inflammatory activity against MSA-2 induced C57BL/6 mouse inflammation model assessed as inhibition of MSA-2 induced IL-6 level in kidney at 10 mg/kg, ip pre-treated for 1 hr followed by stimulated with MSA-2 for 4 hrs by ELISA; type: functional, organism-based; conditions: time 5.0 hrs
Mus musculus [3] = experiment: Anti-inflammatory activity against Cisplatin induced C57BL/6 mouse kidney inflammation model assessed as suppression of Cisplatin induced Cxcl-10 mRNA level in kidney at 5 mg/kg, ip treated for 3 days by real-time PCR analysis; type: functional, organism-based; conditions: time 3.0 day
[4] = target: Stimulator of interferon genes protein (Homo sapiens) (UniProt Q86WV6); experiment: Inhibition of STING downstream signalling in human THP1-Dual cells assessed as inhibition of cGAMP induced IP-10 mRNA expression at 0.3 to 3 uM pre-treated for 1 hr followed by stimulated with cGAMP measured after 4 hrs by real-time PCR analysis; type: cell-based; conditions: dose 0.3-3 µM, time 5.0 hrs
Chain of Stimulator of interferon genes protein (Homo sapiens) (Q86WV6 whole entry): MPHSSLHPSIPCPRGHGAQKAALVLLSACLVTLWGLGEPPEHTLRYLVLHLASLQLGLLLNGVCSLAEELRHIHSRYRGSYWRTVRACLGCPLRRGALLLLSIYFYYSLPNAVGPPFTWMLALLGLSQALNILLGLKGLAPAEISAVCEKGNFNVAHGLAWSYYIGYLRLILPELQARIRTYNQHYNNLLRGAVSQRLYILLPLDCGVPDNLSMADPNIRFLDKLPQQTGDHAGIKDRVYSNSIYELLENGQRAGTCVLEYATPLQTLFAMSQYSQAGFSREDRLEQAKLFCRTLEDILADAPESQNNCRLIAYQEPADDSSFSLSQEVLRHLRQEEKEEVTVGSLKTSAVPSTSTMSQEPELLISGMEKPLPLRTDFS

[5] = target: Stimulator of interferon genes protein (Homo sapiens) (UniProt Q86WV6); experiment: Inhibition of STING downstream signalling in human THP1-Dual cells assessed as inhibition of MSA-2 induced IFN-beta secretion at 0.3 to 3 uM pre-treated for 1 hr followed by stimulated with MSA-2 measured after 24 hrs by ELISA; type: cell-based; conditions: dose 0.3-3 µM, time 25.0 hrs
[6] = target: T1, Stimulator of interferon genes protein (Mus musculus) (UniProt Q3TBT3); experiment: Inhibition of STING downstream signalling in mouse RAW264.7 cells assessed as inhibition of […] induced Cxcl-10 mRNA level pre-treated for 1 hr followed by stimulated with […] measured after 4 hrs by real-time PCR analysis; type: cell-based; conditions: dose 0.3-3 µM, time 5.0 hrs
T1 sequence (whole entry): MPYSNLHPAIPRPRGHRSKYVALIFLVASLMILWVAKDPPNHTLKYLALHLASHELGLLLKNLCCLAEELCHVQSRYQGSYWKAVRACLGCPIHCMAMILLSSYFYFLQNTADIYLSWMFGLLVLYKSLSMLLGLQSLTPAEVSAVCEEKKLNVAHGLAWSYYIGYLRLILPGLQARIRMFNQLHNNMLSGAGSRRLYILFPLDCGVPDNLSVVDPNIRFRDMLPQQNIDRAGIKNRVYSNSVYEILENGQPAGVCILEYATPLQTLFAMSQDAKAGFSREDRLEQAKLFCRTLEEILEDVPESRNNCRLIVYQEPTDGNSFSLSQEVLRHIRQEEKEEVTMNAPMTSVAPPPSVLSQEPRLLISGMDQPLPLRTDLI

[7] = tested on: Stimulator of interferon genes protein (Homo sapiens), Q86WV6 [UNDEFINED MUTATION]; experiment: Inhibition of human STING expressed in 293T-Dual-hSTING-H232 cells assessed as reduction in cGAMP-induced secreted luciferase reporter of interferon stimulated gene (ISG) measured after 24 hrs incubation; type: cell-based
Chain of Stimulator of interferon genes protein (Homo sapiens), Q86WV6 [UNDEFINED MUTATION] (Q86WV6 whole entry, looked up, change not shown): as the sequence (Q86WV6 whole entry) above

[8] = target: Stimulator of interferon genes protein (Homo sapiens) (UniProt Q86WV6); experiment: Inhibition of STING downstream signalling in human THP1-Dual cells assessed as inhibition of cGAMP induced IFN-beta mRNA expression at 0.3 to 3 uM pre-treated for 1 hr followed by stimulated with cGAMP measured after 4 hrs by real-time PCR analysis; type: cell-based; conditions: dose 0.3-3 µM, time 5.0 hrs
[9] = target: Stimulator of interferon genes protein (Homo sapiens) (UniProt Q86WV6); experiment: Inhibition of STING downstream signalling in human THP1-Dual cells assessed as inhibition of HT-DNA induced TNF-alpha mRNA expression at 0.3 to 3 uM pre-treated for 1 hr followed by stimulated with HT-DNA measured after 4 hrs by real-time PCR analysis; type: cell-based; conditions: dose 0.3-3 µM, time 5.0 hrs
[10] = target: T1, Stimulator of interferon genes protein (Mus musculus); experiment: Inhibition of STING downstream signalling in mouse RAW264.7 cells assessed as inhibition of DMAAA induced TNFalpha secretion level at 0.3 to 3 uM pre-treated for 1 hr followed by stimulated with DMAAA measured after 24 hrs by ELISA; type: cell-based; conditions: dose 0.3-3 µM, time 25.0 hrs
[11] = target: T1, Stimulator of interferon genes protein (Mus musculus); experiment: Inhibition of STING in mouse […] ISG cells assessed as reduction in MSA-2-induced secreted luciferase reporter of interferon stimulated gene (ISG) measured after 24 hrs incubation; type: cell-based; conditions: RAW-Lucia ISG
[12] = target: Stimulator of interferon genes protein (Homo sapiens) (UniProt Q86WV6); experiment: Inhibition of STING downstream signalling in human THP1-Dual cells assessed as inhibition of cGAMP induced IP-10 secretion at 0.3 to 3 uM pre-treated for 1 hr followed by stimulated with cGAMP measured after 24 hrs by ELISA; type: cell-based; conditions: dose 0.3-3 µM, time 25.0 hrs
[13] = Volume of distribution at steady state in Sprague-Dawley rat at 1 mg/kg, iv; type: ADME, organism-based; conditions: Sprague-Dawley, in vivo, read-out: Vdss
Mus musculus [14] = experiment: Anti-inflammatory activity against MSA-2 induced C57BL/6 mouse inflammation model assessed as inhibition of MSA-2 induced Cxcl-10 mRNA expression in kidney at 10 mg/kg, ip pre-treated for 1 hr followed by stimulated with MSA-2 for 4 hrs by real-time PCR analysis; type: functional, organism-based; conditions: time 5.0 hrs
Mus musculus [15] = experiment: Effect on Ifn-beta expression in Cisplatin induced C57BL/6 STING-KO mouse kidney inflammation model at 5 mg/kg, ip treated for 3 days by real-time PCR analysis; type: functional, organism-based; conditions: time 3.0 day
Mus musculus [16] = experiment: Anti-inflammatory activity in TREX1 D18N mouse model assessed as reduction in Isg56 mRNA expression in kidney at 10 mg/kg, ip measured after 2 weeks; type: functional, organism-based
Mus musculus [17] = experiment: Effect on […] expression in Cisplatin induced C57BL/6 STING-KO mouse kidney inflammation model at 5 mg/kg, ip treated for 3 days by real-time PCR analysis; type: functional, organism-based; conditions: time 3.0 day
[18] = tested on: Stimulator of interferon genes protein (Homo sapiens), Q86WV6 [UNDEFINED MUTATION]; experiment: Inhibition of human STING expressed in 293T-Dual-hSTING-AQ cells assessed as reduction in cGAMP-induced secreted luciferase reporter of interferon stimulated gene (ISG) measured after 24 hrs incubation; type: cell-based
[19] = AUC (0 to infinity) in Sprague-Dawley rat at 1 mg/kg, iv; type: ADME, organism-based; conditions: in vivo
[20] = target: Stimulator of interferon genes protein (Homo sapiens) (UniProt Q86WV6); experiment: Inhibition of human wild type STING (R232) expressed in human 293-Dual hSTING-R232 cells assessed as reduction in cGAMP-induced IL-6 expression; type: cell-based
Mus musculus [21] = experiment: Anti-inflammatory activity against MSA-2 induced C57BL/6 mouse inflammation model assessed as inhibition of MSA-2 induced IP-10 level in plasma at 10 mg/kg, ip pre-treated for 1 hr followed by stimulated with MSA-2 for 4 hrs by ELISA; type: functional, organism-based; conditions: time 5.0 hrs
Mus musculus [22] = experiment: Anti-inflammatory activity in TREX1 D18N mouse model assessed as reduction in Ccl5 mRNA expression in kidney at 10 mg/kg, ip measured after 2 weeks; type: functional, organism-based
[23] = MRT (0 to infinity) in Sprague-Dawley rat at 1 mg/kg, iv; type: ADME, organism-based; conditions: Sprague-Dawley, in vivo
Mus musculus [24] = experiment: Anti-inflammatory activity against MSA-2 induced C57BL/6 mouse inflammation model assessed as inhibition of MSA-2 induced Isg15 mRNA expression in kidney at 10 mg/kg, ip pre-treated for 1 hr followed by stimulated with MSA-2 for 4 hrs by real-time PCR analysis; type: functional, organism-based; conditions: time 5.0 hrs
Mus musculus [25] = experiment: Anti-inflammatory activity against Cisplatin induced C57BL/6 mouse kidney inflammation model assessed as prevention of Cisplatin induced glomerular injury at 5 mg/kg, ip treated for 3 days; type: functional, organism-based; conditions: time 3.0 day
[26] = Metabolic stability in human liver microsomes assessed as microsomal intrinsic clearance; type: ADME, Microsome; conditions: read-out: CLH

N#CC/C=C/c1ccc2[nH]cc(NC(=O)Nc3ccc4c(c3)OC(F)(F)O4)c2c1
22.8 min: MRT inf [23]
inactive: Activity (Mus musculus [15]) | Activity (Mus musculus [17]) | inhibition (Mus musculus [25])
41 µL/min/mg: microsomal CLint [26]
2.38 L/kg: Vd [13]
196 ng·h/mL: AUC(0-inf) [19]
active: Activity (Mus musculus [1]) | inhibition (Mus musculus [2]) | inhibition (Mus musculus [3]) | inhibition [4] | inhibition [5] | inhibition [6] Dose-dependent-effect | inhibition [7] | inhibition [8] | inhibition [9] | inhibition [10] | inhibition [11] Dose-dependent-effect | inhibition [12] | inhibition (Mus musculus [14]) | Activity (Mus musculus [16]) | inhibition [18] | inhibition [20] | inhibition (Mus musculus [21]) | Activity (Mus musculus [22]) | inhibition (Mus musculus [24])
